Measurements taken from PubChem BioAssay AID1963870 (Molecular Pharmacology Branch, DTP, NCI, 2024).

Test system: 292921-168-R-J2-PDC KRAS tumor spheroid viability
Test: Anticancer human tumor 292921-168-R-J2-PDC patient-derived pancreatic carcinoma cell line growth inhibition [KRAS2]
Details: spheroids with HUVEC and MSC; for viability, T/C: stronger effect = lower value; active means viability on the fitted dose curve at most 10% of control; inactive means the rest
Procedure, shortened: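 KRAS-mutant tumor cells were grown as spheroids with HUVEC endothelial cells and human MSCs as stroma. Targeted agents were tested alone and with KRAS pathway inhibitors. Doses started at or near clinical Cmax, or 10 microM, descending half-log.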

[1] = curve of first compound, second compound 0.1 µM
[2] = curve of first compound, second compound 0.316 µM
[3] = curve of first compound, second compound 1 µM
[4] = curve of first compound, second compound 3.16 µM
[5] = curve of first compound, second compound 10 µM
[6] = second compound 0.1 µM, first compound 0.0316 µM
[7] = second compound 0.1 µM, first compound 0.1 µM
[8] = second compound 0.1 µM, first compound 0.316 µM
[9] = second compound 0.1 µM, first compound 1 µM
[10] = second compound 0.1 µM, first compound 3.16 µM
[11] = second compound 0.1 µM, first compound 10 µM
[12] = second compound 0.316 µM, first compound 0.0316 µM
[13] = second compound 0.316 µM, first compound 0.1 µM
[14] = second compound 0.316 µM, first compound 0.316 µM
[15] = second compound 0.316 µM, first compound 1 µM
[16] = second compound 0.316 µM, first compound 3.16 µM
[17] = second compound 0.316 µM, first compound 10 µM
[18] = second compound 1 µM, first compound 0.0316 µM
[19] = second compound 1 µM, first compound 0.1 µM
[20] = second compound 1 µM, first compound 0.316 µM
[21] = second compound 1 µM, first compound 1 µM
[22] = second compound 1 µM, first compound 3.16 µM
[23] = second compound 1 µM, first compound 10 µM
[24] = second compound 3.16 µM, first compound 0.0316 µM
[25] = second compound 3.16 µM, first compound 0.1 µM
[26] = second compound 3.16 µM, first compound 0.316 µM
[27] = second compound 3.16 µM, first compound 1 µM
[28] = second compound 3.16 µM, first compound 3.16 µM
[29] = second compound 3.16 µM, first compound 10 µM
[30] = second compound 10 µM, first compound 0.0316 µM
[31] = second compound 10 µM, first compound 0.1 µM
[32] = second compound 10 µM, first compound 0.316 µM
[33] = second compound 10 µM, first compound 1 µM
[34] = second compound 10 µM, first compound 3.16 µM
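Further: drug exposure lasted seven days after spheroids formed for three days.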
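Wherever viability, T/C is given: percent of DMSO vehicle control viability which is 100%.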

CC1OCC2(CCN(c3cnc(Sc4ccnc(N)c4Cl)c(N)n3)CC2)C1N (stereo unspecified) + CNCc1ccccc1-c1csc(C(C)Nc2nc(C)nc3cc(OC)c(OC)cc23)c1
active: viability, T/C [24] 0.1% | viability, T/C [25] 0.09% | viability, T/C [26] 0.07% | viability, T/C [27] 0.06% | viability, T/C [28] 0.05% | viability, T/C [29] 0.33% | viability, T/C [30] 0.09% | viability, T/C [31] 0.19% | viability, T/C [32] 0.08% | viability, T/C [33] 0.09% | viability, T/C [34] 0.09% | viability, T/C (second compound 10 µM, first compound 10 µM) 0.15%
203 nM: IC50 [2]
inactive: viability, T/C [6] 77% | viability, T/C [7] 61.6% | viability, T/C [8] 50% | viability, T/C [9] 37.5% | viability, T/C [10] 34.6% | viability, T/C [11] 26.7% | viability, T/C [12] 77.4% | viability, T/C [13] 56.2% | viability, T/C [14] 44.7% | viability, T/C [15] 37.4% | viability, T/C [16] 31.8% | viability, T/C [17] 24.8% | viability, T/C [18] 52.5% | viability, T/C [19] 43.2% | viability, T/C [20] 37.8% | viability, T/C [21] 29.3% | viability, T/C [22] 26% | viability, T/C [23] 22.2%
43.5 nM: IC50 [3]
< 31.6 nM: IC50 [4] | IC50 [5]
296 nM: IC50 [1]

CC1COCCN1c1cc(-c2ccnn2C)c2ccnc(-c3ccn[nH]3)c2n1 (stereo unspecified) + COc1cc2nc(C)nc(NC(C)c3cc(N)cc(C(F)(F)F)c3)c2cc1OC1CCOC1
< 10 nM: IC50 [1] | IC50 [2] | IC50 [3] | IC50 [4] | IC50 [5]
inactive: viability, T/C (second compound 0.1 µM, first compound 0.01 µM) 30.3% | viability, T/C [6] 14.4% | viability, T/C [7] 11.1% | viability, T/C [8] 10.6% | viability, T/C [9] 12.1% | viability, T/C [10] 14.1% | viability, T/C (second compound 0.316 µM, first compound 0.01 µM) 25.2% | viability, T/C [12] 12.9% | viability, T/C [13] 10.1% | viability, T/C [14] 9.13% | viability, T/C [15] 10.8% | viability, T/C [16] 12.5% | viability, T/C (second compound 1 µM, first compound 0.01 µM) 25.6% | viability, T/C [18] 11.6% | viability, T/C [19] 9.3% | viability, T/C [20] 8.99% | viability, T/C [21] 11.2% | viability, T/C [22] 13.2% | viability, T/C (second compound 3.16 µM, first compound 0.01 µM) 19.4% | viability, T/C [24] 12.1% | viability, T/C [25] 9.36% | viability, T/C [26] 8.32% | viability, T/C (second compound 10 µM, first compound 0.01 µM) 12.9% | viability, T/C [30] 12.5%
active: viability, T/C [27] 10.4% | viability, T/C [28] 11.8% | viability, T/C [31] 9.42% | viability, T/C [32] 8.21% | viability, T/C [33] 8.78% | viability, T/C [34] 7.99%

CC(C)n1nc(-c2ccc3oc(N)nc3c2)c2c(N)ncnc21
2.46 nM [middle of 5 runs]: IC50 (curve of compound)
inactive: viability, T/C (compound 0.001 µM) 61.9% [middle of 5 runs] | viability, T/C (compound 0.00316 µM) 48.2% [middle of 5 runs] | viability, T/C (compound 0.01 µM) 35.1% [middle of 5 runs] | viability, T/C (compound 0.0316 µM) 27.3% [middle of 5 runs] | viability, T/C (compound 0.1 µM) 22.6% [middle of 5 runs]

COc1cc2nccc(Oc3ccc(NC(=O)C4(C(=O)Nc5ccc(F)cc5)CC4)cc3)c2cc1OC + C=CC(=O)N1CCN(c2nc(OCC3CCCN3C)nc3c2CCN(c2cccc4cccc(C)c24)C3)CC1CC#N
inactive: viability, T/C (second compound 0.0316 µM, first compound 0.0316 µM) 100% | viability, T/C (second compound 0.0316 µM, first compound 0.1 µM) 90.4% | viability, T/C (second compound 0.0316 µM, first compound 0.316 µM) 94.2% | viability, T/C (second compound 0.0316 µM, first compound 1 µM) 77.1% | viability, T/C (second compound 0.0316 µM, first compound 3.16 µM) 33.9% | viability, T/C (second compound 0.0316 µM, first compound 10 µM) 15.6% | viability, T/C [6] 89.8% | viability, T/C [7] 83.9% | viability, T/C [8] 84.4% | viability, T/C [9] 62.5% | viability, T/C [10] 35.1% | viability, T/C [11] 20.6% | viability, T/C [12] 82% | viability, T/C [13] 83.2% | viability, T/C [14] 82.4% | viability, T/C [15] 55.5% | viability, T/C [16] 29.2% | viability, T/C [17] 18.4% | viability, T/C [18] 45.6% | viability, T/C [19] 39% | viability, T/C [20] 38.2% | viability, T/C [21] 22.9% | viability, T/C [22] 14.7%
< 31.6 nM: IC50 [3] | IC50 [4]
1310 nM: IC50 [2]
active: viability, T/C [23] 9.84% | viability, T/C [24] 0.34% | viability, T/C [25] 0.83% | viability, T/C [26] 0.26% | viability, T/C [27] 0.12% | viability, T/C [28] 0.1% | viability, T/C [29] 0.15%
1710 nM: IC50 [1]
2060 nM: IC50 (curve of first compound, second compound 0.0316 µM)
